Test results published in US20250026747A1, “COLIBACTIN DERIVATIVES AND METHODS OF TREATING, AMELIORATING, AND/OR PREVENTING CANCER” (priority 2021, published 2025).

Columns and labels:
linearized pUC19 DNA = test: DNA cross-linking assay with linearized pUC19 DNA, denaturing agarose gel electrophoresis; format: biochemical; details: linearized pUC19 DNA, pH 7.0, 1 nM-100 μM
Procedure: FIGS. 6A-6C depict the DNA crosslinking ability of several compounds according to some embodiments. The DNA cross-linking assays employ linear pUC19 DNA. DMSO was used as vehicle (negative control), and 100 μM cisplatin was used as positive controls. The DNA was analyzed by 0.4% NaOH denaturing and agarose gel electrophoresis (90 V, 1.5 h). FIG. 6A depicts the DNA cross-linking comparison of colibactin 770 (3a), stable colibactin 742 (4), and its linear precursor 9 at pH 5.0. FIG. 6B depicts the comparison of the relative DNA cross-linking abilities of colibactin 742 (4) and its linear precursor 9 at pH 5.0. FIG. 6C depicts the comparison of the relative DNA cross-linking abilities of colibactin 742 (4) and its linear precursor 9 at pH 7.0.
FIG. 10 depicts the DNA cross-linking assay employing linear pUC19 DNA and synthetic colibactin (3), 9, and colibactin 742 (4) according to some embodiments. Specifically, 5% DMSO was used as vehicle (negative control), and 100 μM cisplatin was used as positive control. DNA ladder (Lane #1); 5% DMSO (Lane #2); 100 μM cisplatin (Lane #3); 200 μM colibactin (3) (Lane #4); 100 μM colibactin (3) (Lane #5); 10 μM colibactin (3) (Lane #6); 1 μM colibactin (3) (Lane #7); 200 μM 9 (Lane #8); 100 μM 9 (Lane #9); 10 μM 9 (Lane #10); 1 μM 9 (Lane #11); 200 μM colibactin 742 (4) (Lane #12); 100 μM colibactin 742 (4) (Lane #13); 10 μM colibactin 742 (4) (Lane #14); 1 μM colibactin 742 (4) (Lane #15). Conditions (Lane #3): linearized pUC19 DNA (15.4 μM in base pairs), 5% DMSO (vehicle), 100 μM cisplatin, 10 mM citric buffer, pH 5.0, 4 h, 37° C. Conditions (Lanes #4-#7): linearized pUC19 DNA (15.4 μM in base pairs), colibactin (3) (200 μM-1 μM), 5% DMSO, 10 mM citric buffer, pH 5.0, 4 h, 37° C. Conditions (Lanes #8-#11): linearized pUC19 DNA (15.4 μM in base pairs), 9 (200 μM-1 μM), 5% DMSO, 10 mM citric buffer, pH 5.0, 4 h, 37° C. Conditions (Lanes #12-#15): linearized pUC19 DNA (15.4 μM in base pairs), colibactin 742 (4) (200 μM-1 μM), 5% DMSO, 10 mM citric buffer, pH 5.0, 4 h, 37° C. The DNA was analyzed by native, 0.2% NaOH, 0.4% NaOH, and 1% NaOH denaturing agarose gel electrophoresis (90 V, 1.5 h). Linear=linearized DNA in native form, linear-denat.=linearized DNA in denaturing form, linear-XL=linerized DNA cross-linked by colibactins or cisplatin.
FIG. 11 depicts the DNA cross-linking assay employing linear pUC19 DNA and synthetic colibactin fragments 23, 24, and 22. Specifically, 5% DMSO was used as vehicle (negative control), and 100 μM cisplatin was used as positive control. DNA ladder (Lane #1); 5% DMSO (Lane #2); 100 μM cisplatin (Lane #3); 500 μM 23 (Lane #4); 100 μM 23 (Lane #5); 10 μM 23 (Lane #6); 1 μM 23 (Lane #7); 100 nm 23 (Lane #8); 500 μM 24 (Lane #9); 100 μM 24 (Lane #10); 10 μM 24 (Lane #11); 1 μM 24 (Lane #12); 100 nm 24 (Lane #13); 500 μM 22 (Lane #14); 100 μM 22 (Lane #15); 10 μM 22 (Lane #16); 1 μM 22 (Lane #17); 100 nm 22 (Lane #18). Conditions (Lane #2): linearized pUC19 DNA (15.4 μM in base pairs), 5% DMSO (vehicle), 10 mM citric buffer, pH 5.0, 4 h, 37° C. Conditions (Lane #3): linearized pUC19 DNA (15.4 μM in base pairs), 5% DMSO (vehicle), 100 μM cisplatin, 10 mM citric buffer, pH 5.0, 4 h, 37° C. Conditions (Lanes #4-#8): linearized pUC19 DNA (15.4 μM in base pairs), 23 (500 μM-100 nM), 5% DMSO, 10 mM citric buffer, pH 5.0, 4 h, 37° C. Conditions (Lanes #9-#13): linearized pUC19 DNA (15.4 μM in base pairs), 24 (500 μM-1 μM), 5% DMSO, 10 mM citric buffer, pH 5.0, 4 h, 37° C. Conditions (Lanes #14-#18): linearized pUC19 DNA (15.4 μM in base pairs), 22 (500 μM-100 nM), 5% DMSO, 10 mM citric buffer, pH 5.0, 4 h, 37° C. The DNA was analyzed by native, 0.2% NaOH, 0.4% NaOH, and 1% NaOH denaturing agarose gel electrophoresis (90 V, 1.5 h). Linear=linearized DNA in native form, linear-denat.=linearized DNA in denaturing form, linear-XL=DSB/linerized DNA cross-linked by colibactins or cisplatin. […]

[1] = Stability of colibactin 770 in aqueous buffer (LC-MS time course); format: physicochemical
Procedure: FIG. 9 depicts the percentage of colibactin 770 (M+Na) over time at pH 7.4, 37° C. according to some embodiments. Specifically, the linear precursor to colibactin 770 (nominally 404 nmol), prepared according to Xu et al. (Science 2019, 365) was dissolved in DMSO (100 μL) and the resulting solution was diluted with PBS buffer (400 μL) at 22° C. This solution was immediately warmed to 37° C. in a preheated water bath. Aliquots (15 μL) were taken at 0 min, 5 min, 10 min, 15 min, 30 min, 60 min, 120 min, 180 min, 240 min, 300 min, and 480 min. Each aliquot was dissolved in acetonitrile (150 μL) and then immediately frozen in liquid nitrogen. The frozen aliquots were stored at −78° C. until the time course was complete. Aliquots were quickly thawed and analyzed using a Shimadzu Scientific Instruments QToF 9030 LC-MS system, equipped with a Nexera LC-40D xs UHPLC, consisting of a CBM-40 Lite system controller, a DGU-405 Degasser Unit, two LC-40D XS UHPLC pumps, a SIL-40C XS autosampler and a Column Oven CTO-40S. UV data was collected with a Shimadzu Nexera HPLC/UHPLC Photodiode Array Detector SPD M-40 in the range of 190-800 nm. Mass spectra were recorded with the quadrupole time-of-flight (QToF) 9030 mass spectrometer. The samples were held at 4° C. in the autosampler compartment. […]

eukaryotic cells = test: Genotoxicity of synthetic colibactin 770 in eukaryotic cells; format: cell-based; details: eukaryotic cells treated with the synthetic compound

For `C[C@H]1CCC(C2=C(CC(=O)NCC(=O)c3csc(C(=O)C(=O)c4csc(CNC(=O)CC5=C(C6=N[C@@H](C)CC6)C(=O)NC56CC6)n4)n3)C3(CC3)NC2=O)=N1` [colibactin 770 (3a)], the “DNA interstrand cross-link (ICL) formation” value (linearized pUC19 DNA) was “fails to produce detectable levels of ICLs”, the “stability at pH 7.0” value ([1]; pH 7.0) was “readily decomposes” and the “time to degradation in aqueous buffer” value ([1]; pH 7.4, 37° C.) was ≤ 2 h. The genotoxicity (eukaryotic cells) was “no genotoxicity was observed”.
